# From PMC7725003, “Systematically Studying the Optimal Amino Acid Distribution Patterns of the Amphiphilic Structure by Using the Ultrashort Amphiphiles” (Frontiers in Microbiology, 2020)
# Where no end group is shown, it is not given here.
# Assays:
# [1] = system: E. coli 25922; format: cell-based, Escherichia coli; details: 25922, 24 h
# Summary of the method: (§1)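 Inoculum: mid-log phase, MHB, 0.5–1 × 10^6 CFU mL^–1. Peptides: serial dilution in 0.2% BSA, equal volume. Incubation: 24 h, 37°C. Read-out: A492, MIC at 95% inhibition; MBC >99.9% kill after agar subculture.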
# [2] = system: E. coli O78; format: cell-based, Escherichia coli; details: O78, 24 h
# Summary of the method: as §1
# [3] = system: E. coli UB1005; format: cell-based, Escherichia coli; details: UB1005, 24 h
# Summary of the method: as §1
# [4] = system: S. typhimurium 14028; format: cell-based, Salmonella typhimurium; details: 14028, 24 h
# Summary of the method: as §1
# [5] = system: S. typhimurium 7731; format: cell-based, Salmonella typhimurium; details: 7731, 24 h
# Summary of the method: as §1
# [6] = system: S. pullorum 7913; format: cell-based, Salmonella pullorum; details: 7913, 24 h
# Summary of the method: as §1
# [7] = system: P. aeruginosa 27853; format: cell-based, Pseudomonas aeruginosa; details: 27853, 24 h
# Summary of the method: as §1
# [8] = system: E. coli K88; details: for MIC: MHB, 24 h 37°C, 95% growth inhibition; for MBC: value in brackets, >99.9% of cells killed
# Experimental: (§2) The antimicrobial activities of the peptides were measured using a method adapted from the National Committee for Clinical Laboratory Standards (NCCLS) with some modifications ([Chou et al., 2016]). The specific procedure for these assays has been previously described. In brief, the bacterial cells were grown to a mid-logarithmic phase and diluted in MHB to an ultimate concentration of 0.5–1 × 10^6 CFU mL^–1. Subsequently, the peptides were consecutively diluted in a 0.2% BSA solution and then added to a bacterial solution in a 96-well plate at identical volumes. After incubation for 24 h at 37°C, the MICs were determined to be the lowest peptide concentration that inhibited 95% of the bacterial growth by monitoring the absorbance at 492 nm using a microplate reader. Subsequently, 50 μL of each incubation mixture was further transferred to agar plates and incubated overnight. […] Every assay was reproduced more than 3 times.
# [9] = system: E. coli K99; details: for MIC: MHB, 24 h 37°C, 95% growth inhibition; for MBC: value in brackets, >99.9% of cells killed
# Experimental: as §2
# [10] = system: Gram-negative bacteria; details: for GM MIC: geometric mean of MICs, 9 Gram-negative strains (Table 2); for TI, Gram-negative bacteria: therapeutic index TI = MHC/GM MIC
# Summary of the method: (§3)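 Broth microdilution adapted from NCCLS: mid-log bacteria diluted in MHB to 0.5–1 × 10^6 CFU mL^–1, mixed with peptides serially diluted in 0.2% BSA. After 24 h at 37°C, MIC taken as the lowest concentration inhibiting 95% of growth by absorbance at 492 nm. Assays repeated more than 3 times.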
# [11] = system: Gram-positive bacteria; details: for GM MIC: geometric mean of MICs, 7 Gram-positive strains (Table 2); for TI, Gram-positive bacteria: therapeutic index TI = MHC/GM MIC
# Summary of the method: as §3
# [12] = system: S. aureus 25923; format: cell-based, Staphylococcus aureus; details: 25923, 24 h
# Summary of the method: as §1
# [13] = system: S. aureus 29213; format: cell-based, Staphylococcus aureus; details: 29213, 24 h
# Summary of the method: as §1
# [14] = system: S. epidermidis 12228; format: cell-based, Staphylococcus epidermidis; details: 12228, 24 h
# Summary of the method: as §1
# [15] = system: MRSA 43300; format: cell-based, methicillin-resistant S. aureus; details: 43300, 24 h
# Summary of the method: as §1
# [16] = system: B. subtilis 63501; format: cell-based, Bacillus subtilis; details: 63501, 24 h
# Summary of the method: as §1
# [17] = system: E. faecalis 29212; format: cell-based, Enterococcus faecalis; details: 29212, 24 h
# Summary of the method: as §1
# [18] = system: Listeria monocytogenes CGMCC 1.1075; format: cell-based; details: CGMCC 1.1075, 24 h
# Summary of the method: as §1
# [19] = system: all of the tested bacterial strains; experiment: Geometric mean of MICs, all tested bacterial strains; format: cell-based; details: for GM, All: geometric mean of MICs across all tested strains; for TI, All: therapeutic index TI = MHC/GM MIC
# Summary of the method: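 Mid-log bacteria at 0.5–1 × 10^6 CFU mL^–1 in MHB with peptides serially diluted in 0.2% BSA, 24 h at 37°C. MIC is the lowest concentration giving 95% growth inhibition by A492. MBC is the lowest giving >99.9% kill on agar subculture, and the GM is taken over all strains.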
# [20] = system: E. coli ATCC 25922; experiment: Salt sensitivity assay (MIC); format: cell-based, Escherichia coli; details: for MIC, FeCl3: 4 μM FeCl3; for MIC, NH4Cl: 6 μM NH4Cl; for MIC, ZnCl2: 8 μM ZnCl2; for MIC, MgCl2: 1 mM MgCl2; for MIC, CaCl2: 2 mM CaCl2; for MIC, KCl: 4.5 mM KCl; for MIC, NaCl: 150 mM NaCl; for MIC, Control: no added salt, three independent assays
# Summary of the method: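 The salt sensitivity of peptides was tested against E. coli ATCC 25922 using a modified NCCLS broth microdilution MIC method. Mid-log bacteria were diluted in MHB to 0.5–1 × 10^6 CFU mL^–1 and mixed in equal volumes with peptides serially diluted in 0.2% BSA in 96-well plates. Physiological salt was added where specified, and the assay was done three independent times.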
# [21] = system: S. aureus 29213; experiment: Salt sensitivity assay (MIC); format: cell-based, Staphylococcus aureus; details: for MIC, FeCl3: 4 μM FeCl3; for MIC, NH4Cl: 6 μM NH4Cl; for MIC, ZnCl2: 8 μM ZnCl2; for MIC, MgCl2: 1 mM MgCl2; for MIC, CaCl2: 2 mM CaCl2; for MIC, KCl: 4.5 mM KCl; for MIC, NaCl: 150 mM NaCl; for MIC, Control: no added salt, three independent assays
# Summary of the method: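 MICs determined by broth microdilution in MHB with 0.5–1 × 10^6 CFU/mL, peptides serially diluted in 0.2% BSA, 24 h at 37°C. Medium supplemented with physiological salts (150 mM NaCl, 4.5 mM KCl, 6 μM NH4Cl, 8 μM ZnCl2, 1 mM MgCl2, 2mM CaCl2, 4 μM FeCl3). MIC = lowest concentration inhibiting 95% growth (A492).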
# [22] = system: Gram-negative bacteria; details: geometric mean of MBCs, 9 Gram-negative strains (Table 2)
# [23] = system: Gram-positive bacteria; details: geometric mean of MBCs, 7 Gram-positive strains (Table 2)
substance,measurement,setting,value
LRRRRLLLL-NH2 [L11],MIC,[1],> 64 µM
same,MBC,[2],128 µM
same,MIC,[2],64 µM
same,MIC,[3],>64 µM
same,MIC,[4],> 64 µM
same,MIC,[5],> 64 µM
same,MIC,[6],>64 µM
same,MIC,[7],> 64 µM
same,MIC,[8],32 µM
same,MBC,[8],64 µM
same,MIC,[9],> 64 µM
same,GM MIC,[10],101.59 µM
same,"TI, Gram-negative bacteria",[10],2.52
same,GM MIC,[11],57.97 µM
same,"TI, Gram-positive bacteria",[11],4.42
same,MIC,[12],> 64 µM
same,MIC,[13],>64 µM
same,MIC,[14],> 64 µM
same,MIC,[15],>64 µM
same,MBC,[16],16 µM
same,MIC,[16],8 µM
same,MIC,[17],> 64 µM
same,MBC,[18],16 µM
same,MIC,[18],8 µM
same,"GM, All",[19],79.48 µM
same,"TI, All",[19],3.22
same,"MIC, FeCl3",[20],> 64 µM
same,"MIC, NH4Cl",[20],> 64 µM
same,"MIC, ZnCl2",[20],> 64 µM
same,"MIC, MgCl2",[20],> 64 µM
same,"MIC, CaCl2",[20],> 64 µM
same,"MIC, KCl",[20],> 64 µM
same,"MIC, NaCl",[20],> 64 µM
same,"MIC, Control",[20],> 64 µM
same,"MIC, FeCl3",[21],> 64 µM
same,"MIC, NH4Cl",[21],> 64 µM
same,"MIC, ZnCl2",[21],> 64 µM
same,"MIC, MgCl2",[21],> 64 µM
same,"MIC, CaCl2",[21],> 64 µM
same,"MIC, KCl",[21],> 64 µM
same,"MIC, NaCl",[21],> 64 µM
same,"MIC, Control",[21],> 64 µM
same,GM MBC,[22],118.51 µM
same,GM MBC,[23],70.66 µM
LRRLRLRLL-NH2 [L3],MBC,[1],16 µM
same,MIC,[1],8 µM
same,MBC,[2],32 µM
same,MIC,[2],16 µM
same,MBC,[3],32 µM
same,MIC,[3],16 µM
same,MBC,[4],128 µM
same,MIC,[4],64 µM
same,MBC,[5],64 µM
same,MIC,[5],32 µM
same,MBC,[6],16 µM
same,MIC,[6],8 µM
same,MBC,[7],128 µM
same,MIC,[7],64 µM
same,MIC,[8],8 µM
same,MBC,[8],16 µM
same,MIC,[9],16 µM
same,MBC,[9],32 µM
same,GM MIC,[10],18.66 µM
same,"TI, Gram-negative bacteria",[10],13.72
same,GM MIC,[11],64.00 µM
same,"TI, Gram-positive bacteria",[11],4.00
same,MIC,[12],> 64 µM
same,MIC,[13],>64 µM
same,MIC,[14],> 64 µM
same,MIC,[15],>64 µM
same,MBC,[16],16 µM
same,MIC,[16],8 µM
same,MIC,[17],> 64 µM
same,MBC,[18],32 µM
same,MIC,[18],16 µM
same,"GM, All",[19],32.00 µM
same,"TI, All",[19],8.00
same,"MIC, FeCl3",[20],16 µM
same,"MIC, NH4Cl",[20],16 µM
same,"MIC, ZnCl2",[20],16 µM
same,"MIC, MgCl2",[20],32 µM
same,"MIC, CaCl2",[20],32 µM
same,"MIC, KCl",[20],8 µM
same,"MIC, NaCl",[20],32 µM
same,"MIC, Control",[20],8 µM
same,"MIC, FeCl3",[21],> 64 µM
same,"MIC, NH4Cl",[21],> 64 µM
same,"MIC, ZnCl2",[21],> 64 µM
same,"MIC, MgCl2",[21],> 64 µM
same,"MIC, CaCl2",[21],> 64 µM
same,"MIC, KCl",[21],> 64 µM
same,"MIC, NaCl",[21],> 64 µM
same,"MIC, Control",[21],> 64 µM
same,GM MBC,[22],37.33 µM
same,GM MBC,[23],78.02 µM
RLLLLRRLR-NH2 [L10],MBC,[1],64 µM
same,MIC,[1],32 µM
same,MBC,[2],32 µM
same,MIC,[2],16 µM
same,MIC,[3],> 64 µM
same,MIC,[4],>64 µM
same,MBC,[5],128 µM
same,MIC,[5],64 µM
same,MIC,[6],> 64 µM
same,MBC,[7],64 µM
same,MIC,[7],32 µM
same,MIC,[8],32 µM
same,MBC,[8],64 µM
same,MIC,[9],4 µM
same,MBC,[9],8 µM
same,GM MIC,[10],40.32 µM
same,"TI, Gram-negative bacteria",[10],6.35
same,GM MIC,[11],70.66 µM
same,"TI, Gram-positive bacteria",[11],3.62
same,MIC,[12],> 64 µM
same,MIC,[13],>64 µM
same,MIC,[14],> 64 µM
same,MIC,[15],>64 µM
same,MBC,[16],32 µM
same,MIC,[16],16 µM
same,MIC,[17],> 64 µM
same,MBC,[18],32 µM
same,MIC,[18],16 µM
same,"GM, All",[19],51.54 µM
same,"TI, All",[19],4.97
same,"MIC, FeCl3",[20],32 µM
same,"MIC, NH4Cl",[20],32 µM
same,"MIC, ZnCl2",[20],32 µM
same,"MIC, MgCl2",[20],32 µM
same,"MIC, CaCl2",[20],32 µM
same,"MIC, KCl",[20],32 µM
same,"MIC, NaCl",[20],32 µM
same,"MIC, Control",[20],32 µM
same,"MIC, FeCl3",[21],> 64 µM
same,"MIC, NH4Cl",[21],> 64 µM
same,"MIC, ZnCl2",[21],> 64 µM
same,"MIC, MgCl2",[21],> 64 µM
same,"MIC, CaCl2",[21],> 64 µM
same,"MIC, KCl",[21],> 64 µM
same,"MIC, NaCl",[21],> 64 µM
same,"MIC, Control",[21],> 64 µM
same,GM MBC,[22],64.00 µM
same,GM MBC,[23],86.14 µM
